According to PubChem BioAssay (NCI):
“And” between values parts separate entries of the source, which are not always exact repeats. Equal values may be shown once.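 Values below derive from 48-hour exposures of cells grown in 96-well plates, with endpoints linearly interpolated between the two concentrations bracketing the appropriate inhibition level. GI50 marks 50% less growth. TGI: total growth inhibition.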

How the values were obtained:
Assay in all cases: inhibition of tumour cell growth, NCI panel, 48 h
[1] = test system: 786-0 renal
[2] = test system: HCC-2998 colon
[3] = test system: HL-60(TB) leukemia
[4] = test system: HOP-62 NSCLC
[5] = test system: HT29 colon
[6] = test system: NCI-H226 lung
[7] = test system: NCI-H460 lung
[8] = test system: NCI-H522 lung
[9] = test system: OVCAR-8 ovarian
[10] = test system: EKVX NSCLC

SMILES | GI50 [1] | TGI [1] | GI50 [2] | TGI [2] | GI50 [3] | TGI [3] | GI50 [4] | TGI [4] | GI50 [5] | TGI [5] | GI50 [6] | TGI [6] | GI50 [7] | TGI [7] | GI50 [8] | TGI [8] | GI50 [9] | TGI [9] | GI50 [10] | TGI [10]
CCC(C)[C@H](NC(=O)Nc1cc(C(F)(F)F)cc(C(F)(F)F)c1)C(=O)N[C@@H](Cc1cn(C)cn1)C(=O)OC (stereo not given in full) | 1.19 µM | 1.88 µM | 0.696 µM | 1.35 µM | 1.35 µM | 3.22 µM | 0.919 µM | 1.82 µM | 0.711 µM | 1.4 µM | 0.571 µM | 1.29 µM | 0.895 µM | 1.89 µM | 0.584 µM | 1.15 µM | 0.634 µM | 1.33 µM |  | 
O=C(Nc1cccc(O)c1)c1ccc(NC2=C(Cl)C(=O)N(Cc3ccc(Cl)cc3Cl)C2=O)cc1 | 7.2 µM | > 57 µM | 18.9 µM | 33.8 µM |  | 3.75 µM | 8.44 µM | > 58.5 µM | 2.75 µM | > 22.1 µM | 6.78 µM | 26.7 µM | 2.86 µM | 8.91 µM | 1.94 µM | 4.24 µM | 1.95 µM | 4.12 µM | 6.74 µM | 13.6 µM
COCN1COCN=C1NC#N |  | > 100 µM |  | > 100 µM |  | > 100 µM |  | > 100 µM |  | > 100 µM |  | > 100 µM |  | > 100 µM |  | > 100 µM |  | > 100 µM |  | > 100 µM
C[N+](C)(C)CC(=O)N/N=C(/C(=O)Nc1ccc(Br)cc1)C1C(=O)NC(=O)NC1=O |  | > 100 µM |  | > 100 µM |  | > 100 µM |  | > 100 µM |  | > 100 µM |  | > 100 µM |  | > 100 µM |  | > 100 µM |  |  |  | > 100 µM
COC(=O)N/N=C(\C)c1c(O)cc(C)oc1=O |  | > 100 µM |  | > 100 µM |  | > 100 µM |  | > 100 µM |  | > 100 µM |  | > 100 µM |  | > 100 µM |  |  |  | > 100 µM |  | > 100 µM
CC1(C)CNc2cc(NC(=O)c3cccnc3NCc3ccncc3)ccc21 | 45.1 µM | > 100 µM | 39 µM | > 100 µM | 28 µM | 81.5 µM | 50.9 µM | > 100 µM | 32.2 µM | > 100 µM | 11 µM | 46.1 µM | 32.3 µM | > 100 µM | 25.7 µM | > 95.4 µM | 33.3 µM | > 100 µM | 23.6 µM | > 95.2 µM
Cc1ccc(/C=N/Nc2nc(Nc3ccccc3)nc(-n3nc(C)cc3C)n2)cc1 | 3.7 µM | 36.9 µM | 2.71 µM | 6.6 µM | 2.51 µM | 84.8 µM | 5.27 µM | 29.2 µM | 3.55 µM | > 100 µM | 4.88 µM | 37.7 µM | 2.11 µM | 8.91 µM | 2.67 µM | 6.48 µM | 3.33 µM | 11.5 µM | 3 µM | 31.5 µM
CC1=C(/C=C/C(C)=C/C2CC(N(C)C)=CC(=O)O2)C(C)(C)CCC1 (stereo not given) |  | 29.2 µM |  | 26.7 µM |  | 16 µM |  | 31 µM |  | 27.9 µM |  | 25.8 µM |  | 42.4 µM |  |  |  | 32.3 µM |  | 27.9 µM
O=C([CH-]C(=O)c1ccccc1)c1ccccc1.[CH-]1CCCCC1.[CH-]1CCCCC1.[CH-]1CCCCC1.[Sn+4] | 4.25 µM | 15.1 µM | 6.1 µM | 18.9 µM | 2.28 µM | 6.59 µM | 7.85 µM | 20 µM | 14 µM | 38.5 µM | 5.73 µM | 39.3 µM | 8.88 µM |  | 2.03 µM | 5.26 µM | 5.47 µM | 55.4 µM | 10.7 µM | 32.6 µM
O=C(/C=C\c1ccc([N+](=O)[O-])cc1)c1ccccc(=O)c1O |  | 4.05 µM |  | 5.6 µM |  | 1.63 µM |  | 15.5 µM |  | 3.85 µM |  | 6.7 µM |  | 3.64 µM |  | 6.63 µM |  | 11.3 µM |  | 11.9 µM
COC12C=C/C(=C(/C(=O)OCc3ccccn3)C(=O)CCCCCCCCC3(OC)C=C/C(=C(/C(=O)OCc4ccccn4)C(=O)CCCCCCCC1)O3)O2 | 0.326 µM | 1.05 µM | 0.212 µM | 0.518 µM | 0.306 µM | 2.17 µM | 0.318 µM | 1.06 µM | 0.423 µM | 2.89 µM | 0.25 µM | 0.648 µM |  |  | 0.345 µM | 1.71 µM | 0.406 µM | > 100 µM | 0.614 µM | 3.72 µM
CC(=O)[O-].Cn1ccnc1CNCc1nccn1C.[Cu+2].[O-][Cl+3]([O-])([O-])[O-] | > 100 µM | > 100 µM | > 100 µM | > 100 µM | > 100 µM | > 100 µM | > 100 µM | > 100 µM | > 100 µM | > 100 µM | > 100 µM | > 100 µM | 51.2 µM | > 100 µM | > 100 µM | > 100 µM | > 100 µM | > 100 µM | > 100 µM | > 100 µM
CN(C)c1ccc2oc(=O)c3ccccc3c2c1 |  | 79.6 µM |  | > 100 µM |  | > 100 µM |  | 80.5 µM |  | > 100 µM |  | > 100 µM |  | > 100 µM |  | > 100 µM |  | > 100 µM |  | > 100 µM
CC(C)(C)C1CCC2c3c([nH]c4ccccc34)C3C(=O)N(c4ccc(Cl)cc4)C(=O)C3C2C1 (stereo not given) | > 100 µM | > 100 µM | 22.1 µM and > 10 µM | 81.6 µM and > 10 µM |  | 38.8 µM and > 10 µM | > 100 µM | > 100 µM | 34.5 µM and > 10 µM | > 100 µM | 72.8 µM and > 10 µM | > 100 µM | 37.2 µM and > 10 µM | > 100 µM | 60.8 µM and > 10 µM | > 100 µM | > 100 µM | > 100 µM | 63.9 µM and > 10 µM | > 100 µM
COc1cc(/C=C/C(=O)/C=C/c2ccc(-n3ccnc3C)cc2)ccc1O | 2.11 µM | 5.21 µM | 1.75 µM | 3.21 µM | 3.26 µM | 32.5 µM | 3.18 µM | 10.5 µM | 1.95 µM | 3.9 µM | 2.37 µM | 6.4 µM | 15.4 µM | 43.4 µM | 5.26 µM | 24.9 µM | 3.52 µM | > 100 µM | 21 µM | 99 µM
